# Source: patent US20120288442A1, “Nuclear Imaging Method Using Molecular Target Detection Agent for Liver Fibrosis” (ATOMIC ENERGY COUNCIL-INSTITUTE OF NUCLEAR ENERGY RESEARCH, priority 2011, published 2012)
# Molecular target: T1, CB1 receptor of liver fibrosis cell (Mus musculus, UniProt P47746)
# T1 construct: from tissue; host or cells: liver of living mice (one fibrotic, one normal), in vivo imaging
# Assay: fluorescence imaging of a mouse having liver fibrosis and a normal mouse with Tocrifluor
# Format: in vivo
# Conditions: for a 543 nm light; FIG. 3B and FIG. 3C
# T1 sequence (P47746 whole entry): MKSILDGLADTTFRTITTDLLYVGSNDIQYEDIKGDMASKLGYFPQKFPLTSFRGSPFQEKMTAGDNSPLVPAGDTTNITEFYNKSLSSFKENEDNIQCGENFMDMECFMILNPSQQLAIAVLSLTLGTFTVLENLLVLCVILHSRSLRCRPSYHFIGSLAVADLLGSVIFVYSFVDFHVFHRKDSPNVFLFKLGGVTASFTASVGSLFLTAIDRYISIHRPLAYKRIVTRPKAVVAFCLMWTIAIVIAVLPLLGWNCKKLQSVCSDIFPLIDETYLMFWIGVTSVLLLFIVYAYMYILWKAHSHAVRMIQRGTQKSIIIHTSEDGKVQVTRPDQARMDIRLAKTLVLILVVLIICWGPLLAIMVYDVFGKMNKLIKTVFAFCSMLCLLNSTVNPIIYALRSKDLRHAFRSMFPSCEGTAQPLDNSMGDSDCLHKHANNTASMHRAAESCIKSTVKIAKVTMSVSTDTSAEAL
substance,measurement,value
"N-(Piperidin-1-yl)-5-(4-(4-(3-(5-carboxamidotetramethyl rhodaminyl)propyl))phenyl)-1-(2,4-dichlorophenyl)-4-methyl-1H-pyrazole-3-carboxamide [Tocrifluor]",fluorescence found at wavelength,590 nm
